According to patent US20250270222A1, “AP2 ASSOCIATED KINASE 1 INHIBITORS AND USES THEREOF” (Satellos Bioscience Inc., priority 2023, published 2025):

Experiments:
[1] = target: AAK1 (amino acids T27-A365) (Homo sapiens (Human), UniProt Q2M2I8); assay: AAK1 pSENs assay; format: biochemical; conditions: ratio of AAK1 pSENs activity to GAK pSENs activity
Protocol: (§1) The recombinant proteins were independently expressed in Esherichia coli BL21(DE3) cells cultured in Luria-Bertani (LB) medium until OD600 reached 0.6-0.8, then cooled to 15° C., and supplemented with 0.5 mM isopropyl 1-thio-D-galactopyranoside (IPTG) induce protein expression 16 h. Cells were harvested and resuspended in lysis buffer (50 mM HEPES pH 7.5, 500 mM NaCl, 5 mM imidazole, 5% glycerol, 0.5 mM Tris (2-carboxyethyl) phosphine (TCEP), cOmplete Protease Inhibitor Tablet (Roche)) and lysed by microfluidics high pressure homogenizer (UH-06, Union-Biotech). Proteins were purified using Ni-Affinity chromatography (His FF column, Bestchrom) and eluted stepwise in binding buffer with 20-300 mM imidazole. Removal of the hexahistidine tag was performed at 4° C. overnight using recombinant TEV protease and reacted with BirA to obtain the corresponding biotinylated-AAK1. BIKE or GAK proteins. Further separated in the reverse Strep column (Strep-Tactin® XT, IBA). The Biotin elution sample was collected containing untagged biotinylated protein was then purified by Ion-exchange chromatography (Mono Q 10/100 GL, Cytiva) and Size-exclusion chromatography (HiLoad 16/600 Superdex 200 pg, Cytiva). The pure protein was stored in a storage buffer 50 mM HEPES (pH 7.5), 300 mM NaCl, 5% glycerol at −80° C. Protein were characterized by SDS-PAGE. LC-MS and aSEC.
This example describes one illustrative method for determining the IC50 of the compounds of the present invention against AAK1 (amino acids T27-A365). AAK1 protein was dissolved at 20 nM in 1× enzyme solution (50 mM HEPES pH7.5, 10 mM MgCl2, 1 mM DTT, 1% glycerol, 0.5 mM EGTA, 0.01% Briji35, 0.02% BSA) and 12.5 ul was incubated with 250 nl DMSO or 250 nl compound in DMSO at 25° C. for 15 min. The reaction was started by addition of 12.5 ul of 30 uM AQT0759 (Assayquant, CSKS-AQT0759B) and 70 uM ATP which were diluted in 1× substrate dilution buffer (50 mM HEPES pH7.5, 10 mM MgCl2, 1 mM DTT, 1% glycerol, 0.5 mM EGTA, 0.01% Briji35).

[2] = target: GAK (amino acids Q25-N335) (Homo sapiens (Human), UniProt O14976); assay: GAK pSENs assay; format: biochemical
Protocol: as §1
This example describes one illustrative method for determining the IC50 of the compounds of the present invention against GAK (amino acids Q25-N335).

Sequence of AAK1 (amino acids T27-A365) (Q2M2I8 27-365): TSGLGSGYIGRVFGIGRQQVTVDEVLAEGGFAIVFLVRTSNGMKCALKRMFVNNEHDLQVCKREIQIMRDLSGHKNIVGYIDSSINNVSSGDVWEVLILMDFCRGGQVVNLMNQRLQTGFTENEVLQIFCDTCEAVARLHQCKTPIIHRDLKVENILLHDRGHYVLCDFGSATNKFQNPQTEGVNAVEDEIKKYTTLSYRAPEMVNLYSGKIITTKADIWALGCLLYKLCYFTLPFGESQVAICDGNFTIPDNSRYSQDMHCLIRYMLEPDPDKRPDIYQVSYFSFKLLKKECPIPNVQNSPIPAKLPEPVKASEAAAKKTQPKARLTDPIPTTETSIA
Sequence of GAK (amino acids Q25-N335) (O14976 25-335): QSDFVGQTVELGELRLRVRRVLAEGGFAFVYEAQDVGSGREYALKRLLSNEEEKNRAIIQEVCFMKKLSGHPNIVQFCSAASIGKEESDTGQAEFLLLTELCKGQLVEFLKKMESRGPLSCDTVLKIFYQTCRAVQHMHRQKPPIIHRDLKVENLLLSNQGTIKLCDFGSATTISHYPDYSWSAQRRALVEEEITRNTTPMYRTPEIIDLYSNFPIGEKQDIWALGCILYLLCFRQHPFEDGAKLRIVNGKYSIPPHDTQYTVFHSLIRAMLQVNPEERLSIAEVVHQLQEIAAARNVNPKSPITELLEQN

SMILES	AAK1:GAK pSENs Selectivity [1]	IC50 [2]
CC(C)Oc1ncccc1-c1cnn2ccc(N3CCN(C(=O)OC4(C)COC4)CC3)nc12 [Compound I-1, (3-methyloxetan-3-yl)-4-[3-(2-isopropoxy-3-pyridyl)pyrazolo[1,5-a]pyrimidin-5-yl]piperazine-1-carboxylate]	A (A: ≤0.015)	> 1500 nM
CC1(OC(=O)N2CCN(c3ccn4ncc(-c5cccnc5OC5CC5)c4n3)CC2)COC1 [Compound I-2, (3-methyloxetan-3-yl)-4-[3-[2-(cyclopropoxy)-3-pyridyl]pyrazolo[1,5-a]pyrimidin-5-yl]piperazine-1-carboxylate]	A (A: ≤0.015)	> 1500 nM
COc1ncccc1-c1cnn2ccc(N3CCN(C(=O)OC4CNC(=O)C4)CC3)nc12 (centres unmarked) [Compound I-6, (5-Oxopyrrolidin-3-yl) 4-[3-(2-methoxy-3-pyridyl)pyrazolo[1,5-a]pyrimidin-5-yl]piperazine-1-carboxylate]	A (A: ≤0.015)	> 1500 nM
O=C1C[C@@H](OC(=O)N2CCN(c3ccn4ncc(-c5cccnc5OC5CC5)c4n3)CC2)CN1 [Compound I-10, [(3R)-5-Oxopyrrolidin-3-yl]-4-[3-[2-(cyclopropoxy)-3-pyridyl]pyrazolo[1,5-a]pyrimidin-5-yl]piperazine-1-carboxylate]	A (A: ≤0.015)	> 1500 nM
O=C1C[C@H](OC(=O)N2CCN(c3ccn4ncc(-c5cccnc5OC5CC5)c4n3)CC2)CN1 [Compound I-11, [(3S)-5-Oxopyrrolidin-3-yl]-4-[3-[2-(cyclopropoxy)-3-pyridyl]pyrazolo[1,5-a]pyrimidin-5-yl]piperazine-1-carboxylate hydrochloric acid]	A (A: ≤0.015)	> 1500 nM
CC1(OC(=O)N2CCN(c3ccn4ncc(-c5cccnc5OC5COC5)c4n3)CC2)COC1 [Compound I-18, (3-Methyloxetan-3-yl)-4-[3-[2-(oxetan-3-yloxy)-3-pyridyl]pyrazolo[1,5-a]pyrimidin-5-yl]piperazine-1-carboxylate]	A (A: ≤0.015)	> 1500 nM
O=C1C[C@H](OC(=O)N2CCN(c3ccn4ncc(-c5cccnc5OC5COC5)c4n3)CC2)CN1 [Compound I-25, [(3S)-5-Oxopyrrolidin-3-yl]4-[3-[2-(oxetan-3-yloxy)-3-pyridyl]pyrazolo[1,5-a]pyrimidin-5-yl]piperazine-1-carboxylate]	A (A: ≤0.015)	> 1500 nM
CC(C)Oc1ncccc1-c1cnn2ccc(N3CCN(C(=O)O[C@@H]4CNC(=O)C4)CC3)nc12 [Compound I-26, [(3S)-5-Oxopyrrolidin-3-yl]-4-[3-(2-isopropoxy-3-pyridyl)pyrazolo[1,5-a]pyrimidin-5-yl]piperazine-1-carboxylate]	A (A: ≤0.015)	> 1500 nM
O=C(O[C@H]1CO[C@H]2OCC[C@H]21)N1CCN(c2ccn3ncc(-c4cccnc4OC4CC4)c3n2)CC1 [Compound I-27, [(3aS,4R,6aR)-2,3,3a, 4,5,6a-hexahydrofuro[2,3-b]furan-4-yl]-4-[3-[2-(cyclopropoxy)-3-pyridyl]pyrazolo[1,5-a]pyrimidin-5-yl]piperazine-1-carboxylate]	A (A: ≤0.015)	> 1500 nM
CC(C)(C)OC(=O)N1CCC(N2C[C@@H](OC(=O)N3CCN(c4ccn5ncc(-c6cccnc6OC6CC6)c5n4)CC3)CC2=O)CC1 [Compound I-30, [(3S)-1-(1-tert-Butoxycarbonyl-4-piperidyl)-5-oxo-pyrrolidin-3-yl]4-[3-[2-(cyclopropoxy)-3-pyridyl]pyrazolo[1,5-a]pyrimidin-5-yl]piperazine-1-carboxylate]	A (A: ≤0.015)	> 1500 nM
O=C(O[C@H]1CC(=O)N(C2CCNCC2)C1)N1CCN(c2ccn3ncc(-c4cccnc4OC4CC4)c3n2)CC1 [Compound I-32, [(3S)-5-Oxo-1-(4-piperidyl)pyrrolidin-3-yl]4-[3-[2-(cyclopropoxy)-3-pyridyl]pyrazolo[1,5-a]pyrimidin-5-yl]piperazine-1-carboxylate]	A (A: ≤0.015)	> 1500 nM
CN1C[C@@H](OC(=O)N2CCN(c3ccn4ncc(-c5cccnc5OC5CC5)c4n3)CC2)CC1=O [Compound I-34]	A (A: ≤0.015)	> 1500 nM
CNCCN1C[C@@H](OC(=O)N2CCN(c3ccn4ncc(-c5cccnc5OC5CC5)c4n3)CC2)CC1=O [Compound I-36, (S)-1-(2-(methylamino)ethyl)-5-(oxopyrrolidin-3-yl)-4-(3-(2-cyclopropoxypyridin-3-yl)pyrazolo[1,5-a]pyrimidin-5-yl)piperazine-1-carboxylate]	A (A: ≤0.015)	> 1500 nM
[2H]C1([2H])N(C(=O)O[C@H]2CC(=O)N(C)C2)C([2H])([2H])C([2H])([2H])N(c2ccn3ncc(-c4cccnc4OC4CC4)c3n2)C1([2H])[2H] [Compound I-73, [(3S)-1-methyl-5-oxo-pyrrolidin-3-yl]-4-[3-[2-(cyclopropoxy)-3-pyridyl]pyrazolo[1,5-a]pyrimidin-5-yl]-2,2,3,3,5,5,6,6-octadeuterio-piperazine-1-carboxylate]		> 1500 nM
CN1C[C@@H](OC(=O)N2CCN(c3ccn4ncc(-c5cccnc5O)c4n3)CC2)CC1=O [Compound I-98, [(3S)-1-methyl-5-oxo-pyrrolidin-3-yl]-4-[3-(2-hydroxy-3-pyridyl)pyrazolo[1,5-a]pyrimidin-5-yl]piperazine-1-carboxylate]	C (C: 0.076-0.15)	
CC(C)(C)OC(=O)N1CCN(c2ccn3ncc(Cl)c3n2)CC1 [Compound I-100, tert-butyl 4-(3-chloropyrazolo[1,5-a]pyrimidin-5-yl)piperazine-1-carboxylate]	D (D: 0.16-1.00)	
CC(C)(C)OC(=O)N1CCN(c2ccn3ncc(-c4cccnc4O)c3n2)CC1 [Compound I-102, tert-butyl 4-[3-(2-hydroxy-3-pyridyl)pyrazolo[1,5-a]pyrimidin-5-yl]piperazine-1-carboxylate]	A (A: ≤0.015)	
Brc1cnn2ccc(N3CCNCC3)nc12 [Compound I-103, 3-bromo-5-piperazin-1-yl-pyrazolo[1,5-a]pyrimidine]	E (E: >1.00)	
Clc1cnn2ccc(N3CCNCC3)nc12 [Compound I-104, 3-chloro-5-piperazin-1-yl-pyrazolo[1,5-a]pyrimidine]	E (E: >1.00)	
c1cc2nc(N3CCNCC3)ccn2n1 [Compound I-105, 5-piperazin-1-ylpyrazolo[1,5-a]pyrimidine]	E (E: >1.00)	
Oc1ncccc1-c1cnn2ccc(N3CCNCC3)nc12 [Compound I-106, 3-(5-piperazin-1-ylpyrazolo[1,5-a]pyrimidin-3-yl)pyridin-2-ol]	C (C: 0.076-0.15)	
[2H]C([2H])([2H])N1C[C@@H](OC(=O)N2CCN(c3nc4c(-c5cc(OC)cnc5OC5CC5)cnn4cc3F)CC2)CC1=O [Compound I-117, [(3S)-5-oxo-1-(trideuteriomethyl)pyrrolidin-3-yl]4-[3-[2-(cyclopropoxy)-5-methoxy-3-pyridyl]-6-fluoro-pyrazolo[1,5-a]pyrimidin-5-yl]piperazine-1-carboxylate]	A (A: ≤0.015)	
CC(C)(C)OC(=O)NCCNc1nc2c(-c3cccnc3OC3CC3)cnn2cc1F [Compound I-124, tert-butyl N-[2-[[3-[2-(cyclopropoxy)-3-pyridyl]-6-fluoro-pyrazolo[1,5-a]pyrimidin-5-yl]amino]ethyl]carbamate]	C (C: 0.076-0.15)	
CC(C)(C)OC(=O)NCCNc1ccc2ncc(-c3cccnc3OC3CC3)n2n1 [Compound I-129, tert-butyl N-[2-[[3-[2-(cyclopropoxy)-3-pyridyl]imidazo[1,2-b]pyridazin-6-yl]amino]ethyl]carbamate]	C (C: 0.076-0.15)	
COc1ncccc1-c1cnn2ccc(N3CCN(C(=O)OC4(C)COC4)CC3)nc12 [RC-1, (3-methyloxetan-3-yl)-4-[3-(2-methoxy-3-pyridyl)pyrazolo[1,5-a]pyrimidin-5-yl]piperazine-1-carboxylate, reference compound]	0.0083	
